US20160002204A1 (Board of Regents, The University of Texas System, priority 2014, published 2016)

Assays:
[1] = target: T1, GLS1 (purified recombinant human GAC) (Homo sapiens, UniProt O94925); test: GLS1 enzymatic activity assay (dual-coupled, Amplex UltraRed/resorufin); format: biochemical
T1 sequence (O94925 55-598 isoform O94925-3 limits assumed): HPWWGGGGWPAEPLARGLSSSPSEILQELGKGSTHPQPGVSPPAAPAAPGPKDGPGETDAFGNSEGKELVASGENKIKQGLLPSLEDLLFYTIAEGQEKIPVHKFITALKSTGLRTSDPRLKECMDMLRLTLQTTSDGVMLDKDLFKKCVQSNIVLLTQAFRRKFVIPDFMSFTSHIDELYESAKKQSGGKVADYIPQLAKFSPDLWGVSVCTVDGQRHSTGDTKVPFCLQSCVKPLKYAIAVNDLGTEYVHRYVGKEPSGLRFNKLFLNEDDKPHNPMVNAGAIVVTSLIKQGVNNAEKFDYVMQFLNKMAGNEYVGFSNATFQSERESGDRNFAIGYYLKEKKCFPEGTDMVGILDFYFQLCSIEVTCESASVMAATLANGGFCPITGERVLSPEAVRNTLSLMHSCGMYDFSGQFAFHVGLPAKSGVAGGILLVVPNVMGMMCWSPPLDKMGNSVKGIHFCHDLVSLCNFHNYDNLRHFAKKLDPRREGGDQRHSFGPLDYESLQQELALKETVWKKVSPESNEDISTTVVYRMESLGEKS
Description: GLS1 Enzymatic Activity Assay
The inhibition of purified recombinant human GAC by varying concentrations of inhibitors is assessed via a dual-coupled enzymatic assay. The glutamate produced by the glutaminase reaction is used by glutamate oxidase to produce α-ketoglutarate, ammonia, and hydrogen peroxide, with this hydrogen peroxide subsequently being used by horseradish peroxidase to produce resorufin in the presence of Amplex UltraRed. The assay buffer consisted of 50 mM Hepes (pH 7.4), 0.25 mM EDTA and 0.1 mM Triton X-100. GAC was incubated with potassium phosphate (10 minutes at room temperature) prior to incubation with inhibitor (10 minutes at room temperature). The final reaction conditions were as follows: 2 nM GAC, 50 mM potassium phosphate, 100 mU/mL glutamate oxidase (Sigma), 1 mM glutamine (Sigma), 100 mU/mL horseradish peroxidase (Sigma), 75 μM Amplex UltraRed (Life Technologies), and 1% (v/v) DMSO. The production of resorufin was monitored on a Perkin Elmer Envision plate reader (excitation 530 nm, emission 590 nm) either in a kinetics or endpoint mode (at 20 minutes). IC50 values were calculated using a four-parameter logistic curve fit.

A549 cells = test: A549 proliferation (viability) assay, Cell Titer Fluor, 72 hours; format: cell-based; settings: Homo sapiens
Description: A549 cells were routinely maintained in RPMI 1640 media (Gibco catalog number 11875-093) supplemented with 10% dialyzed fetal bovine serum using a humidified incubator (37° C., 5% CO2 and ambient O2). In preparation for the viability assay, cells were inoculated into 384-well black CulturPlates (Perkin Elmer) at a density of 1000 cells/well in a volume of 40 uL. Following a 24-hour incubation at 37° C., 5% CO2 and ambient O2, cells were treated with compound (10 uL) in a final DMSO concentration of 0.5% (v/v). The microplates were then incubated for 72 hours (37° C., 5% CO2 and ambient O2). Cell Titer Fluor (Promega) was subsequently added (10 uL of 6× reagent) and mixed for 15 minutes at room temperature. The plates were then incubated for 30 minutes (37° C., 5% CO2 and ambient O2) and fluorescence was subsequently read on the Perkin Elmer Envision plate reader. EC50 values were calculated using a four-parameter logistic curve fit.

SMILES | IC50 [1] | EC50 (A549 cells)
O=C(Cc1ccccc1)Nc1ccn(CCC(F)Cn2cc(C(=O)NCc3cc(OC(F)(F)F)ccc3F)nn2)c(=O)c1 (stereo not drawn) [Example 12, 1-(2-fluoro-4-(2-oxo-4-(2-phenylacetamido)pyridin-1(2H)-yl)butyl)-N-(2-fluoro-5-(trifluoromethoxy)benzyl)-1H-1,2,3-triazole-4-carboxamide] | < 100 nM | < 100 nM
O=C(Cc1ccccc1)Nc1ccn(CCCCn2ccc(NC(=O)Cc3ccccc3)nc2=O)c(=O)n1 [Example 15, N,N′-(butane-1,4-diylbis(2-oxo-1,2-dihydropyrimidine-1,4-diyl))bis(2-phenylacetamide)] | < 100 nM | > 5000 nM
O=C(Cc1ccccc1)Nc1ccn(CCCCn2cc(C(=O)NCc3ncccc3F)nn2)c(=O)c1 [Example 147, N-[(3-fluoropyridin-2-yl)methyl]-1-{4-[2-oxo-4-(2-phenylacetamido)-1,2-dihydropyridin-1-yl]butyl}-1H-1,2,3-triazole-4-carboxamide] | 100 to 500 nM | > 5000 nM
O=C(Cc1ccc(Cl)nc1)Nc1ccn(CCC(F)Cn2cc(C(=O)NCc3cccc(OC(F)(F)F)c3)nn2)c(=O)c1 (stereo not drawn) [Example 238, 1-(4-{4-[2-(6-chloropyridin-3-yl)acetamido]-2-oxo-1,2-dihydropyridin-1-yl}-2-fluorobutyl)-N-{[3-(trifluoromethoxy)phenyl]methyl}-1H-1,2,3-triazole-4-carboxamide] | < 100 nM | 100 to 500 nM
O=C(Cc1cccc(OC(F)(F)F)c1)Nc1ccc(CCCCn2ccc(NC(=O)Cc3ccccn3)nc2=O)nn1 [Example 118, N-[6-(4-{2-oxo-4-[2-(pyridin-2-yl)acetamido]-1,2-dihydropyrimidin-1-yl}butyl)pyridazin-3-yl]-2-[3-(trifluoromethoxy)phenyl]acetamide] | < 100 nM | < 100 nM
O=C(NCc1cccc(OC(F)(F)F)c1)c1cn(CC(F)CCn2ccc(NC(=O)[C@H](O)c3ccccc3)c(F)c2=O)nn1 (stereo partly drawn) [Example 287, 1-(2-fluoro-4-{3-fluoro-4-[(2R)-2-hydroxy-2-phenylacetamido]-2-oxo-1,2-dihydropyridin-1-yl}butyl)-N-{[3-(trifluoromethoxy)phenyl]methyl}-1H-1,2,3-triazole-4-carboxamide] | < 100 nM | < 100 nM
CC(=O)OC(C(=O)Nc1ccn(CC[C@@H](F)Cn2cc(C(=O)NCc3cccc(OC(F)(F)F)c3)nn2)c(=O)c1F)c1ccccc1 (stereo in doubt) [Example 306, (R)-[(3-fluoro-1-{3-fluoro-4-[4-({[3-(trifluoromethoxy)phenyl]methyl}carbamoyl)-1H-1,2,3-triazol-1-yl]butyl}-2-oxo-1,2-dihydropyridin-4-yl)carbamoyl](phenyl)methyl acetate] | < 100 nM | < 100 nM
O=C(Cc1ccccc1)Nc1ccc(CCCCn2ccc(NC(=O)OCc3ccccc3)nc2=O)nn1 [Example 96, benzyl N-(2-oxo-1-{4-[6-(2-phenylacetamido)pyridazin-3-yl]butyl}-1,2-dihydropyrimidin-4-yl)carbamate] | < 100 nM | 100 to 500 nM
CC(=O)Nc1ccn(CCCCc2ccc(NC(=O)Cc3ccccc3)nn2)c(=O)n1 [Example 92, N-{6-[4-(4-acetamido-2-oxo-1,2-dihydropyrimidin-1-yl)butyl]pyridazin-3-yl}-2-phenylacetamide] | < 100 nM | 500 to 5000 nM
Cn1ccnc1CC(=O)Nc1ccn(CCC(F)Cn2cc(C(=O)NCc3cccc(OC(F)(F)F)c3)nn2)c(=O)c1 (stereo not drawn) [Example 189, 1-(2-fluoro-4-{4-[2-(1-methyl-1H-imidazol-2-yl)acetamido]-2-oxo-1,2-dihydropyridin-1-yl}butyl)-N-{[3-(trifluoromethoxy)phenyl]methyl}-1H-1,2,3-triazole-4-carboxamide] | 100 to 500 nM | > 5000 nM

Other lines, results leading:

IC50 [1] | EC50 (A549 cells) | SMILES
< 100 nM | < 100 nM | O=C(Cc1ccccc1)Nc1ccn(CCC(F)Cn2cc(C(=O)NCc3ccc(OC(F)(F)F)cn3)nn2)c(=O)c1F (stereo not drawn) [Example 409, 1-{2-fluoro-4-[3-fluoro-2-oxo-4-(2-phenylacetamido)-1,2-dihydropyridin-1-yl]butyl}-N-{[5-(trifluoromethoxy)pyridin-2-yl]methyl}-1H-1,2,3-triazole-4-carboxamide]
< 100 nM | < 100 nM | O=C(CC1CCCCO1)Nc1ccn(CCCCn2cc(C(=O)NCc3cccc(OC(F)(F)F)c3)nn2)c(=O)c1 (stereo not drawn) [Example 206, 1-(4-{4-[2-(oxan-2-yl)acetamido]-2-oxo-1,2-dihydropyridin-1-yl}butyl)-N-{[3-(trifluoromethoxy)phenyl]methyl}-1H-1,2,3-triazole-4-carboxamide]
< 100 nM | < 100 nM | CC1CCCN(C(=O)C(=O)Nc2ccn(CCC(F)Cn3cc(C(=O)NCc4cccc(OC(F)(F)F)c4)nn3)c(=O)c2F)C1 (stereo not drawn) [Example 418, 1-(2-fluoro-4-{3-fluoro-4-[2-(3-methylpiperidin-1-yl)-2-oxoacetamido]-2-oxo-1,2-dihydropyridin-1-yl}butyl)-N-{[3-(trifluoromethoxy)phenyl]methyl}-1H-1,2,3-triazole-4-carboxamide]
< 100 nM | 100 to 500 nM | O=C(Cc1ccccc1)Nc1ccn(CC(F)CCn2cc(C(=O)NCc3cc(C(F)(F)F)ccn3)nn2)c(=O)c1 (stereo not drawn) [Example 161, 1-{3-fluoro-4-[2-oxo-4-(2-phenylacetamido)-1,2-dihydropyridin-1-yl]butyl}-N-{[4-(trifluoromethyl)pyridin-2-yl]methyl}-1H-1,2,3-triazole-4-carboxamide]
< 100 nM | < 100 nM | O=C(Cc1ccccc1F)Nc1ccn(CCC(F)Cn2cc(C(=O)NCc3cccc(OC(F)(F)F)c3)nn2)c(=O)c1F (stereo not drawn) [Example 328, 1-(2-fluoro-4-{3-fluoro-4-[2-(2-fluorophenyl)acetamido]-2-oxo-1,2-dihydropyridin-1-yl}butyl)-N-{[3-(trifluoromethoxy)phenyl]methyl}-1H-1,2,3-triazole-4-carboxamide]
< 100 nM | 100 to 500 nM | O=C(CN1CCCCC1)Nc1ccn(CCCCc2nnc(C(=O)NCc3cc(C(F)(F)F)ccn3)s2)c(=O)c1F [Example 467, 5-(4-{3-fluoro-2-oxo-4-[2-(piperidin-1-yl)acetamido]-1,2-dihydropyridin-1-yl}butyl)-N-{[4-(trifluoromethyl)pyridin-2-yl]methyl}-1,3,4-thiadiazole-2-carboxamide]
< 100 nM | 100 to 500 nM | O=C(CC1CCCCC1)Nc1ccn(CCCCn2cc(C(=O)NCc3cccnc3)nn2)c(=O)c1 [Example 191, 1-{4-[4-(2-cyclohexylacetamido)-2-oxo-1,2-dihydropyridin-1-yl]butyl}-N-(pyridin-3-ylmethyl)-1H-1,2,3-triazole-4-carboxamide]
< 100 nM | < 100 nM | CC(C)(C)OC(=O)N1CC2(CN(CC(=O)Nc3ccn(CCC(F)Cn4cc(C(=O)NCc5cccc(OC(F)(F)F)c5)nn4)c(=O)c3F)C2)C1 (stereo not drawn) [Example 297, tert-butyl 6-{[(3-fluoro-1-{3-fluoro-4-[4-({[3-(trifluoro-methoxy)phenyl]methyl}carbamoyl)-1H-1,2,3-triazol-1-yl]butyl}-2-oxo-1,2-dihydropyridin-4-yl)carbamoyl]methyl}-2,6-diazaspiro[3.3]heptane-2-carboxylate]
